According to patent publication US20050113450A1, “Antibacterial agents” (priority 2002, published 2005):
Values after ≈ are worked out from the molar mass of the structure shown.

System: SA 9218
Assay: MIC by standard agar dilution method
Type: cell-based
Conditions: Mueller Hinton agar, 10^4 to 10^5 cells per spot, incubated overnight at 35° C., lowest concentration that inhibits visible growth
Method in brief: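 Agar dilution: two-fold compound dilutions mixed into molten Mueller Hinton agar, spots of ~10^4–10^5 cells from 0.5 McFarland suspension diluted 1:20 in TSB. Incubated overnight at 35 °C; MIC is lowest concentration inhibiting visible growth.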

Compound	MIC	SA 9218 MIC
O=C(Nc1ccc(-c2cccs2)cc1C(=O)O)c1cccc(S(=O)(=O)N2CCc3cc(Cl)ccc32)c1 [PHA-556657]	2 µg/mL (≈ 3.71 µM)	–
Cn1cccc1-c1ccc(NC(=O)c2cccc(S(=O)(=O)N3CCc4cc(Cl)ccc43)c2)c(C(=O)O)c1 [PHA-556658]	8 µg/mL (≈ 14.9 µM)	–
O=C(Nc1ccc(-c2cnccn2)cc1C(=O)O)c1cccc(S(=O)(=O)N2CCc3cc(Cl)ccc32)c1 [PHA-556661]	8 µg/mL (≈ 15 µM)	–
O=C(Nc1ccc(-c2ccco2)cc1C(=O)O)c1cccc(S(=O)(=O)N2CCc3cc(Cl)ccc32)c1 [PHA-556663]	8 µg/mL (≈ 15.3 µM)	–
O=C(Nc1ccc(-c2ccccc2)cc1C(=O)O)c1cccc(S(=O)(=O)N2CCc3cc(Cl)ccc32)c1 [PHA-557035]	4 µg/mL (≈ 7.5 µM)	–
N#Cc1ccc(NC(=O)c2ccc(Oc3ccccc3)cc2)c(C(=O)O)c1 [PHA-561055]	1 µg/mL (≈ 2.79 µM)	–
N#Cc1ccc(NC(=O)c2cccc(Oc3cccc(F)c3)c2)c(C(=O)O)c1 [PHA-562731]	1 µg/mL (≈ 2.66 µM)	–
Cc1ccccc1Oc1cccc(C(=O)Nc2ccc(C#N)cc2C(=O)O)c1 [PHA-562733]	0.25 µg/mL (≈ 0.671 µM)	–
N#Cc1ccc(NC(=O)c2ccc3c(c2)S(=O)(=O)N(c2ccc(Cl)cc2)CC3)c(C(=O)O)c1 [PHA-562745]	0.25 µg/mL (≈ 0.519 µM)	–
C[C@H](c1ccccc1)N(C)S(=O)(=O)c1cccc(C(=O)Nc2ccc(C#N)cc2C(=O)O)c1 [PHA-562862]	4 µg/mL (≈ 8.63 µM)	–
C[C@@H](c1ccccc1)N(C)S(=O)(=O)c1cccc(C(=O)Nc2ccc(C#N)cc2C(=O)O)c1 [PHA-562863]	2 µg/mL (≈ 4.31 µM)	–
O=C(Nc1ccc(-c2ccc(Cl)cc2)cc1C(=O)O)c1cccc(S(=O)(=O)N2CCc3cc(Cl)ccc32)c1 [PHA-563274]	2 µg/mL (≈ 3.52 µM)	–
O=C(Nc1ccc(-c2cccc([N+](=O)[O-])c2)cc1C(=O)O)c1cccc(S(=O)(=O)N2CCc3cc(Cl)ccc32)c1 [PHA-563275]	2 µg/mL (≈ 3.46 µM)	–
N#Cc1ccc(-c2ccc(NC(=O)c3cccc(S(=O)(=O)N4CCc5cc(Cl)ccc54)c3)c(C(=O)O)c2)cc1 [PHA-563276]	2 µg/mL (≈ 3.58 µM)	–
Cc1csc(-c2ccc(NC(=O)c3cccc(S(=O)(=O)N4CCc5cc(Cl)ccc54)c3)c(C(=O)O)c2)c1 [PHA-563277]	2 µg/mL (≈ 3.62 µM)	–
O=C(Nc1ccc(-c2ccc(F)cc2)cc1C(=O)O)c1cccc(S(=O)(=O)N2CCc3cc(Cl)ccc32)c1 [PHA-563278]	2 µg/mL (≈ 3.63 µM)	–
O=C(Nc1ccc(-c2ccccc2C(F)(F)F)cc1C(=O)O)c1cccc(S(=O)(=O)N2CCc3cc(Cl)ccc32)c1 [PHA-563279]	0.5 µg/mL (≈ 0.832 µM)	–
O=C(Nc1ccc(-c2cc(C(F)(F)F)cc(C(F)(F)F)c2)cc1C(=O)O)c1cccc(S(=O)(=O)N2CCc3cc(Cl)ccc32)c1 [PHA-563280]	1 µg/mL (≈ 1.49 µM)	–
O=C(Nc1ccc(-c2ccc(F)cc2F)cc1C(=O)O)c1cccc(S(=O)(=O)N2CCc3cc(Cl)ccc32)c1 [PHA-563281]	1 µg/mL (≈ 1.76 µM)	–
Cc1ccc(-c2ccc(NC(=O)c3cccc(S(=O)(=O)N4CCc5cc(Cl)ccc54)c3)c(C(=O)O)c2)s1 [PHA-563282]	1 µg/mL (≈ 1.81 µM)	–
CC(C)(C)c1ccc(-c2ccc(NC(=O)c3cccc(S(=O)(=O)N4CCc5cc(Cl)ccc54)c3)c(C(=O)O)c2)cc1 [PHA-563283]	16 µg/mL (≈ 27.2 µM)	–
O=C(Nc1ccc(-c2cccc(C(F)(F)F)c2)cc1C(=O)O)c1cccc(S(=O)(=O)N2CCc3cc(Cl)ccc32)c1 [PHA-563284]	2 µg/mL (≈ 3.33 µM)	–
O=C(Nc1ccc(-c2ccc(C(F)(F)F)cc2)cc1C(=O)O)c1cccc(S(=O)(=O)N2CCc3cc(Cl)ccc32)c1 [PHA-563285]	2 µg/mL (≈ 3.33 µM)	–
O=C(Nc1ccc(-c2ccccn2)cc1C(=O)O)c1cccc(S(=O)(=O)N2CCc3cc(Cl)ccc32)c1 [PHA-563324]	> 128 µg/mL	–
COc1ccc(Oc2cccc(C(=O)Nc3ccc(C#N)cc3C(=O)O)c2)cc1 [PHA-564215]	0.5 µg/mL (≈ 1.29 µM)	–

Compound	MIC	SA 9218 MIC
N#Cc1ccc(NC(=O)c2cccc(Oc3cccc([N+](=O)[O-])c3)c2)c(C(=O)O)c1 [PHA-564218]	1 µg/mL (≈ 2.48 µM)	–
N#Cc1ccc(NC(=O)c2cccc(S(=O)(=O)N3CCCCC3)c2)c(C(=O)O)c1 [PHA-564750]	0.25 µg/mL (≈ 0.605 µM)	–
O=C(Nc1ccc(Br)cc1C(=O)O)c1cccc(C(O)c2ccccc2)c1 (centres unmarked) [PHA-566947]	–	0.5 µg/mL
O=C(Nc1ccc(Br)cc1C(=O)O)c1cccc(C(O)c2ccccc2)c1 (centres unmarked) [PHA-566948]	1 µg/mL (≈ 2.35 µM)	–
O=C(O)c1cc([N+](=O)[O-])ccc1/C=C/c1cccc(S(=O)(=O)N2CCc3cc(Cl)ccc32)c1 [PHA-568196]	1 µg/mL (≈ 2.06 µM)	–
O=C(O)c1ccc([N+](=O)[O-])cc1/C=C\c1cccc(S(=O)(=O)N2CCc3cc(Cl)ccc32)c1 [PHA-568197]	16 µg/mL (≈ 33 µM)	–
Cc1ccccc1-c1ccc(NC(=O)c2cccc(S(=O)(=O)N3CCc4cc(Cl)ccc43)c2)c(C(=O)O)c1 [PHA-568205]	2 µg/mL (≈ 3.66 µM)	–
O=C(Nc1ccc(-c2ccc(Cl)s2)cc1C(=O)O)c1cccc(S(=O)(=O)N2CCc3cc(Cl)ccc32)c1 [PHA-568206]	2 µg/mL (≈ 3.49 µM)	–
O=C(Nc1ccc(Br)cc1C(=O)O)c1ccc(S(=O)(=O)N2CCCC2)cc1 [PHA-568376]	16 µg/mL (≈ 35.3 µM)	–
O=C(Nc1ccc(Br)cc1C(=O)O)c1cccc(S(=O)(=O)N2CCCC2)c1 [PHA-568378]	2 µg/mL (≈ 4.41 µM)	–
N#Cc1ccc(NC(=O)c2cccc(S(=O)(=O)N3CCOCC3)c2)c(C(=O)O)c1 [PHA-568420]	–	0.5 µg/mL
COc1cccc2ccn(S(=O)(=O)c3cccc(C(=O)Nc4ccc(C#N)cc4C(=O)O)c3)c12 [PHA-568422]	0.125 µg/mL (≈ 0.263 µM)	–
COc1ccc2ccn(S(=O)(=O)c3cccc(C(=O)Nc4ccc(C#N)cc4C(=O)O)c3)c2c1 [PHA-568424]	1 µg/mL (≈ 2.1 µM)	–
N#Cc1ccc(NC(=O)c2cc(CCO)cc(S(=O)(=O)N3CCc4ccccc43)c2)c(C(=O)O)c1 [PHA-568425]	8 µg/mL (≈ 16.3 µM)	–
N#Cc1ccc(NC(=O)c2cccc(S(=O)(=O)n3ccc4cc(F)ccc43)c2)c(C(=O)O)c1 [PHA-568461]	0.125 µg/mL (≈ 0.27 µM)	–
COc1ncc(-c2ccc(NC(=O)c3cccc(S(=O)(=O)N4CCc5cc(Cl)ccc54)c3)c(C(=O)O)c2)c(OC)n1 [PHA-568906]	8 µg/mL (≈ 13.4 µM)	–
N#Cc1ccc(NC(=O)c2ccc(C#Cc3ccccc3)cc2)c(C(=O)O)c1 [PHA-568907]	8 µg/mL (≈ 21.8 µM)	–
Cl.N#Cc1ccc(NC(=O)c2cccc(SCc3ccncc3)c2)c(C(=O)O)c1 [PHA-569044A]	0.5 µg/mL	–
N#Cc1ccc(NC(=O)c2cccc(SCc3ccncc3)c2)c(C(=O)O)c1 [PHA-569044]	0.25 µg/mL (≈ 0.642 µM)	–
CC1CCCN1S(=O)(=O)c1cccc(C(=O)Nc2ccc(C#N)cc2C(=O)O)c1 (centres unmarked) [PHA-569064]	1 µg/mL (≈ 2.42 µM)	–
CC1CCC(C)N1S(=O)(=O)c1cccc(C(=O)Nc2ccc(C#N)cc2C(=O)O)c1 (centres unmarked) [PHA-569077]	1 µg/mL (≈ 2.34 µM)	–
N#Cc1ccc(/C=C/c2cccc(S(=O)(=O)N3CCc4cc(Cl)ccc43)c2)c(C(=O)O)c1 [PHA-569887]	0.25 µg/mL (≈ 0.538 µM)	–
N#Cc1ccc(NC(=O)c2cccc(OCc3ccccc3)c2)c(C(=O)O)c1 [PHA-569974]	1 µg/mL (≈ 2.69 µM)	–
Cc1noc(C)c1-c1ccc(NC(=O)c2cccc(S(=O)(=O)N3CCc4cc(Cl)ccc43)c2)c(C(=O)O)c1 [PHA-569977]	16 µg/mL (≈ 29 µM)	–
N#Cc1ccc(NC(=O)c2cccc(C(=O)C3CCCC3)c2)c(C(=O)O)c1 [PHA-570042]	2 µg/mL (≈ 5.52 µM)	–

Compound	MIC	SA 9218 MIC
O=C(Nc1ccc(Cl)cc1C(=O)O)c1cc(Br)cc(S(=O)(=O)N2CCc3ccccc32)c1 [PHA-570949]	1 µg/mL (≈ 1.87 µM)	–
COc1cccc(C(=O)Nc2ccc(C#N)cc2C(=O)O)c1 [PHA-571151]	8 µg/mL (≈ 27 µM)	–
COc1ccc(Br)c(C(=O)Nc2ccc(C#N)cc2C(=O)O)c1 [PHA-571153]	64 µg/mL (≈ 171 µM)	–
N#Cc1ccc(NC(=O)c2cccc(Cl)c2)c(C(=O)O)c1 [PHA-571155]	32 µg/mL (≈ 106 µM)	–
CN(C)c1ccc(C(=O)Nc2ccc(C#N)cc2C(=O)O)cc1 [PHA-571157]	32 µg/mL (≈ 103 µM)	–
N#Cc1ccc(NC(=O)c2cccc(S(=O)(=O)N3CCc4ccccc43)c2)c(C(=O)O)c1 [PHA-571161]	> 128 µg/mL	–
CC(C)CN(CC(C)C)S(=O)(=O)c1cccc(C(=O)Nc2ccc(C#N)cc2C(=O)O)c1 [PHA-571164]	8 µg/mL (≈ 17.5 µM)	–
N#Cc1ccc(NC(=O)c2cccc(S(=O)(=O)N3CCC3)c2)c(C(=O)O)c1 [PHA-571167]	32 µg/mL (≈ 83 µM)	–
CN(CCc1ccccc1)S(=O)(=O)c1ccc(C(=O)Nc2ccc(C#N)cc2C(=O)O)cc1 [PHA-571169]	32 µg/mL (≈ 69 µM)	–
N#Cc1ccc(NC(=O)c2cccc(S(=O)(=O)N3CCN(c4ncccn4)CC3)c2)c(C(=O)O)c1 [PHA-571170]	64 µg/mL (≈ 130 µM)	–
CC(=O)c1ccc(N2CCN(S(=O)(=O)c3cccc(C(=O)Nc4ccc(C#N)cc4C(=O)O)c3)CC2)cc1 [PHA-571172]	32 µg/mL (≈ 60.1 µM)	–
N#Cc1ccc(NC(=O)c2ccc(S(=O)(=O)N3CCCCCC3)cc2)c(C(=O)O)c1 [PHA-571174]	64 µg/mL (≈ 150 µM)	–
CCN(CC)C(=O)C1CCCN(S(=O)(=O)c2cccc(C(=O)Nc3ccc(C#N)cc3C(=O)O)c2)C1 (centres unmarked) [PHA-571176]	64 µg/mL (≈ 125 µM)	–
CC1CN(S(=O)(=O)c2ccc(C(=O)Nc3ccc(C#N)cc3C(=O)O)cc2)CC(C)O1 (centres unmarked) [PHA-571182]	64 µg/mL (≈ 144 µM)	–
CC(C(O)c1ccccc1)N(C)S(=O)(=O)c1ccc(C(=O)Nc2ccc(C#N)cc2C(=O)O)cc1 (centres unmarked) [PHA-571183]	–	32 µg/mL
CN(C1CCCCC1)S(=O)(=O)c1cccc(C(=O)Nc2ccc(C#N)cc2C(=O)O)c1 [PHA-571186]	128 µg/mL (≈ 290 µM)	–
N#Cc1ccc(NC(=O)c2ccc(S(=O)(=O)N3CCC(C#N)(c4ccccc4)CC3)cc2)c(C(=O)O)c1 [PHA-571188]	8 µg/mL (≈ 15.5 µM)	–
CCC1CCCCN1S(=O)(=O)c1ccc(C(=O)Nc2ccc(C#N)cc2C(=O)O)cc1 (centres unmarked) [PHA-571189]	64 µg/mL (≈ 145 µM)	–
COc1cc2c(cc1OC)CN(S(=O)(=O)c1cccc(C(=O)Nc3ccc(C#N)cc3C(=O)O)c1)CC2 [PHA-571194]	4 µg/mL (≈ 7.67 µM)	–
CN(CCC(O)c1ccccc1)S(=O)(=O)c1cccc(C(=O)Nc2ccc(C#N)cc2C(=O)O)c1 (centres unmarked) [PHA-571196]	64 µg/mL (≈ 130 µM)	–
CCCCN(CC)S(=O)(=O)c1cccc(C(=O)Nc2ccc(C#N)cc2C(=O)O)c1 [PHA-571197]	16 µg/mL (≈ 37.3 µM)	–
COc1cc2c(cc1OC)CN(S(=O)(=O)c1ccc(C(=O)Nc3ccc(C#N)cc3C(=O)O)cc1)CC2 [PHA-571198]	> 128 µg/mL	–
N#Cc1ccc(NC(=O)c2ccc(S(=O)(=O)N3CCN(c4ccc([N+](=O)[O-])cc4)CC3)cc2)c(C(=O)O)c1 [PHA-571199]	64 µg/mL (≈ 120 µM)	–
CCN(CC)C(=O)C1CCCN(S(=O)(=O)c2ccc(C(=O)Nc3ccc(C#N)cc3C(=O)O)cc2)C1 (centres unmarked) [PHA-571202]	128 µg/mL (≈ 250 µM)	–
